Publication PMC5919439, “Isolation and molecular characterization of novel glucarpidases: Enzymes to improve the antibody directed enzyme pro-drug therapy for cancer treatment” (PLoS ONE, 2018)

Target: Ps CPG2 (Pseudomonas sp. RS-16, UniProt P06621)
Test: decrease in absorbance at […] nm, plate reader, initial rates
Assay type: biochemical
Conditions: 0.1 M Tris-HCl pH 7.3, 0.2 mM ZnSO4, 37°C, 0.03-0.42 mM MTX; apparent Km

Sequence of Ps CPG2 (P06621 23-415): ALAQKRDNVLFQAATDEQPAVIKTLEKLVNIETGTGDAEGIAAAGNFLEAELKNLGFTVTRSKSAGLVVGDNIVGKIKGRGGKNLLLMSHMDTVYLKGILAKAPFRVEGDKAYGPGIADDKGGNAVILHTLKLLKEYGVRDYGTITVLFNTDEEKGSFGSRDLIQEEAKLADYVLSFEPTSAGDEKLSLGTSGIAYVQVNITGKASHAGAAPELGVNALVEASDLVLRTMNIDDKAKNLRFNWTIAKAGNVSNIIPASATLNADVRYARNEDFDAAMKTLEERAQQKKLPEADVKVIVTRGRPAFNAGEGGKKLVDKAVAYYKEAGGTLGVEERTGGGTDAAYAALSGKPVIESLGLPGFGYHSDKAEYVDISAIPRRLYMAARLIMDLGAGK

CN(Cc1cnc2nc(N)nc(N)c2n1)c1ccc(C(=O)N[C@@H](CCC(=O)O)C(=O)O)cc1 [methotrexate]
Km: 172 µM
